Experimental findings from patent US20190300885A1, “A NOVEL ROLE FOR TERMINAL RNA URIDYLATION AND RNA TURNOVER IN ONCOGENESIS” (Children's Medical Center Corporation, priority 2016, published 2019) are described below.

The subject of test [1] is HCT116 cells. Nature of the test: Growth curves of wild-type vs ZCCHC6 knockout HCT116 cells under increasing drug concentrations. Particulars: HCT116, CRISPR/Cas9 ZCCHC6 knockout (KO) vs GFP-sgRNA control (WT). The format is cell-based, human. An excerpt: FIGS. 5A-5B. TUTase loss sensitizes cancer cells to disruption of RNA metabolism. […] Error bars indicate SEM (n=3); *P<0.05, **P<0.01.
Given the observed phenotypes, whether there are conditions that specifically sensitize cancer cells to TUTase loss was examined. In particular, since TUTases have been associated with RNA turnover, it was surmised that they may play an especially important role in the context of perturbed RNA metabolism. To address this hypothesis, small molecule agents that are known to cause DNA/RNA damage and thus impair RNA quality (doxorubicin, cisplatin, etoposide), as well as ones that inhibit nucleotide synthesis and thereby limit the pool of available nucleotides in the cell (5-fluorouracil and hydroxyurea) were selected, and wild-type and ZCCHC6 knockout HCT116 cells were treated with increasing concentrations of each agent (FIG. 5A). […] 5-FU has been specifically shown to target the RNA exosome complex, which may explain its differential activity from hydroxyurea in the experiments.

In test [2] the test system is HCT116 cells. Nature of the test: Growth/viability of wild-type vs TUTase knockout HCT116 cells under increasing bortezomib concentrations. The conditions noted are these: HCT116, ZCCHC6 knockout vs WT. The format is cell-based, human. An excerpt: FIG. 16. TUTase loss has a downstream impact on protein turnover. Top, the relative rates of global mRNA translation as measured by the OP-Puromycin fluorescent assay are shown. siNC=negative control siRNA; siZ6=siZCCHC6. Error bars indicate SEM (n=3); *P<0.05. Bottom, growth curves of HCT116 cells after CRISPR/Cas9-mediated knockout using a ZCCHC6-targeting sgRNA (KO) or a GFP-targeting control sgRNA (WT) under treatment with different concentrations of bortezomib are shown.
Given that TUTases affect mRNA turnover, it was also surmised that they may have a downstream effect on protein turnover. To address this hypothesis, the global rate of translation in TUTase knockdown versus control HCT116 cells was measured using the OP-Puromycin method. […] In addition, we treated wild-type and TUTase knockout HCT116 cells with increasing concentrations of bortezomib, an inhibitor of the proteasome and thus protein decay (FIG. 16).

Entries after “also recorded” stand apart in the source; their conditions may differ.

As to `COc1cccc2c1C(=O)c1c(O)c3c(c(O)c1C2=O)C[C@@](O)(C(=O)CO)C[C@@H]3O[C@H]1C[C@H](N)[C@H](O)[C@H](C)O1` [doxorubicin], in test [1], the “differential dose-dependent growth response of ZCCHC6 knockout vs wild-type cells” value was “only 5-fluorouracil (5-FU) yielded a differential dose-dependent response”. For the compound `CC(C)C[C@H](NC(=O)[C@H](Cc1ccccc1)NC(=O)c1cnccn1)B(O)O` [bortezomib], the “effect on cell viability in TUTase knockout vs wild-type cells” value in test [2] is reported as “stronger in the TUTase knockout cells”.

With `O=c1[nH]cc(F)c(=O)[nH]1` [5-fluorouracil], the “differential dose-dependent growth response of ZCCHC6 knockout vs wild-type cells” value in test [1] was “reproducibly stronger effect on the knockout cells; also recorded: significantly stronger inhibitory effect on cells depleted of TUTase”. As for `N.N.[Cl][Pt][Cl]` [cisplatin], in test [1], the “differential dose-dependent growth response of ZCCHC6 knockout vs wild-type cells” value was “only 5-fluorouracil (5-FU) yielded a differential dose-dependent response”. Regarding `COc1cc([C@@H]2c3cc4c(cc3[C@@H](O[C@@H]3O[C@@H]5CO[C@@H](C)O[C@H]5[C@H](O)[C@H]3O)[C@H]3COC(=O)[C@H]23)OCO4)cc(OC)c1O` [etoposide], in test [1], the “differential dose-dependent growth response of ZCCHC6 knockout vs wild-type cells” value is recorded as “only 5-fluorouracil (5-FU) yielded a differential dose-dependent response”.
